Source: PubChem BioAssay (NCI)
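Growth conditions: 96-well plates. Treatment: test compound, 48 hours, 5 concentrations. Analysis: linear interpolation between bracketing concentrations; unreached endpoints set to highest concentration. TGI denotes the concentration required for complete inhibition of growth.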

Key:
Experiment in all cases: growth of human tumour cells (NCI), 48 h
786-0 renal = test system: 786-0 renal
A498 renal = test system: A498 renal
A549 NSCLC = test system: A549 NSCLC
ACHN renal = test system: ACHN renal
BT-549 breast = test system: BT-549 breast
CAKI-1 renal = test system: CAKI-1 renal
CCRF-CEM leukemia = test system: CCRF-CEM leukemia
COLO 205 colon = test system: COLO 205 colon
DU-145 prostate = test system: DU-145 prostate
EKVX NSCLC = test system: EKVX NSCLC
HCC-2998 colon = test system: HCC-2998 colon
HCT-116 colon = test system: HCT-116 colon
HCT-15 colon = test system: HCT-15 colon
HL-60(TB) leukemia = test system: HL-60(TB) leukemia
HOP-62 NSCLC = test system: HOP-62 NSCLC
HOP-92 NSCLC = test system: HOP-92 NSCLC
HS 578T breast = test system: HS 578T breast
HT29 colon = test system: HT29 colon
IGROV1 ovarian = test system: IGROV1 ovarian
K-562 leukemia = test system: K-562 leukemia
KM12 colon = test system: KM12 colon
LOX IMVI melanoma = test system: LOX IMVI melanoma
M14 melanoma = test system: M14 melanoma
MALME-3M melanoma = test system: MALME-3M melanoma
MCF7 breast = test system: MCF7 breast
MDA-MB-231 breast = test system: MDA-MB-231 breast
MDA-MB-435 = test system: MDA-MB-435
MDA-N = test system: MDA-N
MOLT-4 leukemia = test system: MOLT-4 leukemia
NCI-H226 lung = test system: NCI-H226 lung
NCI-H23 lung = test system: NCI-H23 lung
NCI-H460 lung = test system: NCI-H460 lung
NCI-H522 lung = test system: NCI-H522 lung
NCI/ADR-RES ovarian = test system: NCI/ADR-RES ovarian
OVCAR-3 ovarian = test system: OVCAR-3 ovarian
OVCAR-4 ovarian = test system: OVCAR-4 ovarian
OVCAR-5 ovarian = test system: OVCAR-5 ovarian
OVCAR-8 ovarian = test system: OVCAR-8 ovarian
PC-3 prostate = test system: PC-3 prostate
RPMI-8226 leukemia = test system: RPMI-8226 leukemia
RXF 393 renal = test system: RXF 393 renal
SF-268 CNS = test system: SF-268 CNS
SF-295 CNS = test system: SF-295 CNS
SF-539 CNS = test system: SF-539 CNS
SK-MEL-2 melanoma = test system: SK-MEL-2 melanoma
SK-MEL-28 melanoma = test system: SK-MEL-28 melanoma
SK-MEL-5 melanoma = test system: SK-MEL-5 melanoma
SK-OV-3 ovarian = test system: SK-OV-3 ovarian
SN12C renal = test system: SN12C renal
SNB-19 CNS = test system: SNB-19 CNS
SNB-75 CNS = test system: SNB-75 CNS
SR leukemia = test system: SR leukemia
SW-620 colon = test system: SW-620 colon
T-47D breast = test system: T-47D breast
TK-10 renal = test system: TK-10 renal
U251 CNS = test system: U251 CNS
UACC-257 melanoma = test system: UACC-257 melanoma
UACC-62 melanoma = test system: UACC-62 melanoma
UO-31 renal = test system: UO-31 renal

COC(=O)c1oc([N+](=O)[O-])c(Cl)c1Cl
TGI (786-0 renal): 16.4 µM
TGI (A498 renal): 23 µM
TGI (A549 NSCLC): 37.7 µM
TGI (ACHN renal): 15.6 µM
TGI (BT-549 breast): 14.8 µM
TGI (CAKI-1 renal): 7.4 µM
TGI (CCRF-CEM leukemia): 7.35 µM
TGI (COLO 205 colon): 8.61 µM
TGI (DU-145 prostate): 32.5 µM
TGI (EKVX NSCLC): 36.8 µM
TGI (HCC-2998 colon): 35 µM
TGI (HCT-116 colon): 12.9 µM
TGI (HCT-15 colon): 18.2 µM
TGI (HL-60(TB) leukemia): 3.24 µM
TGI (HOP-62 NSCLC): 17 µM
TGI (HOP-92 NSCLC): 39.3 µM
TGI (HS 578T breast): 29.3 µM
TGI (HT29 colon): 41.4 µM
TGI (IGROV1 ovarian): 14.8 µM
TGI (K-562 leukemia): 6.48 µM
TGI (KM12 colon): 14.5 µM
TGI (LOX IMVI melanoma): 13.7 µM
TGI (M14 melanoma): 13.8 µM
TGI (MALME-3M melanoma): 14.3 µM
TGI (MCF7 breast): 6.27 µM
TGI (MDA-MB-231 breast): 14 µM
TGI (MDA-MB-435): 14.6 µM
TGI (MDA-N): 14.9 µM
TGI (MOLT-4 leukemia): 4.93 µM
TGI (NCI-H226 lung): 42.9 µM
TGI (NCI-H23 lung): 17.4 µM
TGI (NCI-H460 lung): 34.6 µM
TGI (NCI-H522 lung): 3.33 µM
TGI (NCI/ADR-RES ovarian): 36.5 µM
TGI (OVCAR-3 ovarian): 11.4 µM
TGI (OVCAR-4 ovarian): 17.4 µM
TGI (OVCAR-5 ovarian): 14.8 µM
TGI (OVCAR-8 ovarian): 30.4 µM
TGI (PC-3 prostate): 15.1 µM
TGI (RPMI-8226 leukemia): 15.8 µM
TGI (RXF 393 renal): 28 µM
TGI (SF-268 CNS): 17.5 µM
TGI (SF-295 CNS): 24.7 µM
TGI (SF-539 CNS): 14.4 µM
TGI (SK-MEL-2 melanoma): 31.6 µM
TGI (SK-MEL-28 melanoma): 15.8 µM
TGI (SK-MEL-5 melanoma): 17.7 µM
TGI (SK-OV-3 ovarian): 33.2 µM
TGI (SN12C renal): 14.2 µM
TGI (SNB-19 CNS): 35.4 µM
TGI (SNB-75 CNS): 20.8 µM
TGI (SR leukemia): 4.89 µM
TGI (SW-620 colon): 10 µM
TGI (T-47D breast): 13.1 µM
TGI (TK-10 renal): 14 µM
TGI (U251 CNS): 15.5 µM
TGI (UACC-257 melanoma): 15.2 µM
TGI (UACC-62 melanoma): 15.7 µM
TGI (UO-31 renal): 14.5 µM

COc1ccc(/C=C2\N=C(N/N=C\C(O)C(O)C(O)C(O)CO)NC2=O)cc1 (centres undefined)
TGI (786-0 renal): > 100 µM
TGI (A498 renal): 93 µM
TGI (A549 NSCLC): > 100 µM
TGI (ACHN renal): > 100 µM
TGI (BT-549 breast): 50.6 µM
TGI (CAKI-1 renal): > 100 µM
TGI (CCRF-CEM leukemia): > 100 µM
TGI (COLO 205 colon): > 100 µM
TGI (DU-145 prostate): > 100 µM
TGI (EKVX NSCLC): > 100 µM
TGI (HCC-2998 colon): > 100 µM
TGI (HCT-116 colon): > 100 µM
TGI (HCT-15 colon): > 100 µM
TGI (HL-60(TB) leukemia): > 100 µM
TGI (HOP-62 NSCLC): 54.9 µM
TGI (HOP-92 NSCLC): 33.9 µM
TGI (HS 578T breast): 71.7 µM
TGI (HT29 colon): > 100 µM
TGI (IGROV1 ovarian): > 100 µM
TGI (K-562 leukemia): > 100 µM
TGI (KM12 colon): > 100 µM
TGI (LOX IMVI melanoma): > 100 µM
TGI (M14 melanoma): 35.7 µM
TGI (MALME-3M melanoma): 43.4 µM
TGI (MCF7 breast): > 100 µM
TGI (MDA-MB-231 breast): 88.5 µM
TGI (MDA-MB-435): 91.1 µM
TGI (MDA-N): 39.6 µM
TGI (MOLT-4 leukemia): 62.3 µM
TGI (NCI-H226 lung): > 100 µM
TGI (NCI-H23 lung): 54 µM
TGI (NCI-H460 lung): > 100 µM
TGI (NCI-H522 lung): 46 µM
TGI (NCI/ADR-RES ovarian): > 100 µM
TGI (OVCAR-3 ovarian): 33.7 µM
TGI (OVCAR-4 ovarian): 53 µM
TGI (OVCAR-5 ovarian): > 100 µM
TGI (OVCAR-8 ovarian): 88.3 µM
TGI (PC-3 prostate): 69.5 µM
TGI (RPMI-8226 leukemia): > 100 µM
TGI (RXF 393 renal): > 100 µM
TGI (SF-268 CNS): 63.2 µM
TGI (SF-295 CNS): > 100 µM
TGI (SF-539 CNS): 38.5 µM
TGI (SK-MEL-2 melanoma): 36.6 µM
TGI (SK-MEL-28 melanoma): > 100 µM
TGI (SK-MEL-5 melanoma): > 100 µM
TGI (SK-OV-3 ovarian): 50.3 µM
TGI (SN12C renal): 52.2 µM
TGI (SNB-75 CNS): 54.3 µM
TGI (SR leukemia): > 100 µM
TGI (SW-620 colon): > 100 µM
TGI (T-47D breast): 27.7 µM
TGI (TK-10 renal): > 100 µM
TGI (U251 CNS): 42.7 µM
TGI (UACC-257 melanoma): > 100 µM
TGI (UO-31 renal): > 100 µM

COc1nc(N)c(N=O)c(OCc2ccccc2)n1
TGI (786-0 renal): > 10 µM
TGI (A498 renal): > 10 µM
TGI (A549 NSCLC): > 10 µM
TGI (ACHN renal): > 10 µM
TGI (BT-549 breast): > 10 µM
TGI (CAKI-1 renal): > 10 µM
TGI (CCRF-CEM leukemia): 6.84 µM
TGI (COLO 205 colon): 2.37 µM
TGI (DU-145 prostate): > 10 µM
TGI (EKVX NSCLC): > 10 µM
TGI (HCC-2998 colon): > 10 µM
TGI (HCT-116 colon): > 10 µM
TGI (HCT-15 colon): > 10 µM
TGI (HL-60(TB) leukemia): > 10 µM
TGI (HOP-62 NSCLC): > 10 µM
TGI (HOP-92 NSCLC): > 10 µM
TGI (HS 578T breast): > 10 µM
TGI (HT29 colon): > 10 µM
TGI (IGROV1 ovarian): > 10 µM
TGI (K-562 leukemia): > 10 µM
TGI (KM12 colon): > 10 µM
TGI (LOX IMVI melanoma): > 10 µM
TGI (M14 melanoma): > 10 µM
TGI (MALME-3M melanoma): 5.97 µM
TGI (MCF7 breast): > 10 µM
TGI (MDA-MB-231 breast): > 10 µM
TGI (MDA-MB-435): > 10 µM
TGI (MDA-N): > 10 µM
TGI (MOLT-4 leukemia): > 10 µM
TGI (NCI-H226 lung): > 10 µM
TGI (NCI-H23 lung): > 10 µM
TGI (NCI-H460 lung): > 10 µM
TGI (NCI-H522 lung): 3.59 µM
TGI (NCI/ADR-RES ovarian): > 10 µM
TGI (OVCAR-3 ovarian): > 10 µM
TGI (OVCAR-4 ovarian): > 10 µM
TGI (OVCAR-5 ovarian): > 10 µM
TGI (OVCAR-8 ovarian): > 10 µM
TGI (PC-3 prostate): > 10 µM
TGI (RPMI-8226 leukemia): > 10 µM
TGI (RXF 393 renal): > 10 µM
TGI (SF-268 CNS): > 10 µM
TGI (SF-295 CNS): > 10 µM
TGI (SF-539 CNS): > 10 µM
TGI (SK-MEL-2 melanoma): > 10 µM
TGI (SK-MEL-28 melanoma): > 10 µM
TGI (SK-MEL-5 melanoma): > 10 µM
TGI (SK-OV-3 ovarian): > 10 µM
TGI (SN12C renal): > 10 µM
TGI (SNB-19 CNS): > 10 µM
TGI (SNB-75 CNS): > 10 µM
TGI (SR leukemia): > 10 µM
TGI (SW-620 colon): 4.35 µM
TGI (T-47D breast): 5.49 µM
TGI (TK-10 renal): > 10 µM
TGI (U251 CNS): > 10 µM
TGI (UACC-257 melanoma): > 10 µM
TGI (UACC-62 melanoma): > 10 µM
